One experiment relates to acid output. In words: Gastric antisecretory activity in the Heidenhain Pouch Dog. Type of experiment: in vivo, dogs. To be noted: for Potency Ratio (cimetidine = 1.0): oral. The procedure:
Prior to surgery, hematology and blood chemistry profiles are obtained and an assessment made as to the general health of selected female dogs. Dogs are vaccinated with Tissue Vax 5 (DHLP - Pitman-Moore) and housed in general animal quarters for four weeks' observation so incipient diseases may become apparent. Dogs are fasted with water ad libitum 24 hours prior to surgery.
Anesthesia is induced with Sodium Pentothal (Abbott) 25-30 mg/kg iv. Subsequent anesthesia is maintained with methoxy- flurane (Pitman-Moore). A mid-line linea alba incision from xiphoid to umbilicus provides good exposure and ease of closure. The stomach is pulled up into the operative field, the greater curvature stretched out at multiple points and clamps placed along the selected line of incision. The pouch is made from the corpus of the stomach so that true parietal cell juice is obtained. About 30% of the corpus volume is resected. The cannula is made of light-weight, biologically-inert material such as nylon or Delrin with dimensions and attachments after DeVito and Harkins [J. Appl. Physiol., 14, 138 (1959)]. Post operatively, dogs are medicated with antibiotics and an analgesic. They are allowed 2-3 months for recovery. Experiments are carried out in the following way: Dogs are fasted overnight (~18 hours) with water ad libitum prior to each experiment. The dogs are placed in a sling and a saphenous vein cannulated for drug administration. Histamine as the base (100 ug/kg/hr) and chlorpheniramine maleate (0.25 mg/kg/hr) are infused continuously (in a volume of 6 mL/hr) with a Harvard infusion pump.
Ninety minutes' infusion are allowed for the dogs to reach a steady state of acid output. At this time the drug or normal saline (control) is administered concomitantly with the secretagogue in a volume of 0.5 mL/kg over a 30 second period. When oral studies are to be carried out, the drug is administered via gastric gavage in a volume of 5 mL/kg. Infusion of the secretagogue is continued and 15 minute samples of.the gastric juice are taken for 4.5 hours. Each sample is measured to the nearest 0.5 mL and titratable acidity is determined by titrating a 1 mL sample to pH 7.0 with 0.2N NaOH, using an Autoburet and an electrometric pH meter (Radiometer). Titratable acid output is calculated in microequivalents by multiplying the volume in milliliters by the acid concentration in milliequivalents per liter.
Results are expressed as percent inhibition relative to control readings. Dose response curves are constructed and ED50 values are calculated by regression analyses. From 3 to 5 dogs are used at each dose level and a minimum of three dosage levels are utilized for determination of a dose response curve.

The subject of a further experiment is Gastric Acid Output. Description: Gastric antisecretory activity in the Gastric Fistula Rat (Table 2 title: Two-Hour Pylorus Ligated Rat). In kind it is in vivo, Long Evans rats. To be noted: numbers in parentheses are the 95% confidence limits. The procedure:
Male Long Evans rats weighing about 240-260 grams at the time of cannula implantation are used. The design and implantation of the stainless steel cannula into the anterior wall of the fore-stomach are carried out essentially as described by Pare et al. [Laboratory Animal Science, 27, 244 (1977)]. The fistula components are designed and the operative procedure is carried out exactly as described in the above reference. Post operatively the animals are individually housed in solid bottom cages with sawdust and are allowed food and water ad libitum throughout the entire recovery period. Animals are not used for test purposes for at least 15 days after the operative procedure.
The animals are fasted but allowed water ad libitum for 20 hours before the testing procedure is to begin. Immediately prior to collection, the cannula is opened and the stomach washed gently with 30-40 mL of warm saline or distilled water to remove any residual contents. The catheter is then screwed into the cannula in place of the plugging screw and the rat is placed in a clear plastic rectangular cage measuring 40 cm long, 15 cm wide and 13 cm high. The bottom of the cage has a slit approximately 1.5 cm wide and 25 cm long running down the center to accommodate the catheter which hangs through it. In this way the rat is not restricted and can move freely about the cage during collection periods. The remainder of the assay is carried out as described by Ridley et al. [Research Comm. Chem. Path. Pharm., 17, 365 (1977)].
Gastric secretions collected during the first hour after washing the stomach are discarded as they may be contaminated. For oral evaluation, the catheter is then removed from the cannula and replaced with the plugging screw. Water (2 mL/kg) is administered orally via gastric intubation and the animal is returned to the cage for 45 minutes. After this time the plugging screw is removed and replaced with a catheter to which a small plastic vial has been attached to collect the gastric secretions. A two hour sample is collected (this represents the control secretion), the catheter removed and replaced with the plugging screw. The test drug is now administered orally in a volume of 2 mL/kg via gastric intubation. Forty-five minutes later the plugging screw is again removed, replaced with the catheter attached to a small plastic vial and another 2 hour sample is collected. The secretions in the second sample are compared to those of the control sample in order to determine the effects of the test drug.
When test compounds are to be evaluated parenterally, the animal is injected ip or sc with the test compound vehicle in a volume of 2 mL/kg immediately after discarding the initial 60 minute collection. A two hour sample is collected (control secretion) and the animals are injected either ip or sc with the test compound in a volume of 2 mL/kg. An additional two hour sample is collected and its secretions are compared to those of the control period to determing drug effects.
The samples are centrifuged in a graduated tube for volume determination. Titratable acidity is measured by titrating a one mL sample to pH 7.0 with 0.02N NaOH, using an Autoburet and an electrometric pH meter (Radiometer). Titratable acid output is calculated in microequivalents by multiplying the volume in milliliters by the acid concentration in milliequivalents per liter.
Results are expressed as percent inhibition relative to control readings. Dose response curves are constructed and ED values are calculated by regression analyses. At least three rats are used at each dosage level and a minimum of three dosage levels are utilized for determination of a dose response curve.

For the next experiment, the system named is ulcer formation. Conditions: two or more days of pretreatment, single agent; cited from earlier work.
Experiment [1] deals with gastric secretion. Description: Inhibition of gastric secretion by the oral route, dog. Type of experiment: in vivo.
In experiment [2] the test system is gastric secretion. Description: Inhibition of gastric secretion by the oral route, rat. Type of experiment: in vivo.
In another experiment the test system is gastric erosions. Description: HCl-induced gastric erosions in rats, pretreatment with compound alone or with pepstatin. To be noted: probit analysis. Type of experiment: in vivo, Long Evans rats.
The subject of the next experiment is pepsin. To be noted: gastric ulcer; cited from earlier work.
A further experiment deals with gastric acid secretion. To be noted: normal volunteers and patients with duodenal ulcer; cited from earlier work.
[3] abbreviates: Rattus norvegicus, sc, Route of Administration s.c., read-out: ED50.
[4] abbreviates: Rattus norvegicus, ip, Route of Administration i.p., read-out: ED50.

Where two headings read alike, the source gives them in different places.

Description for gastric erosions: Adult male, Long Evans rats weighing 280-300 g (Blue Spruce Farms, Alton, New York) were used. The animals were individually caged and food and water were removed 24 and 18 hours, respectively, prior to testing. On the following day, the test compound was administered orally to the animals 30 minutes before 1.0 mL of 0.75N HC1 was instilled into the stomach by gavage. Animals treated with the combination of the test compound and pepstatin received the test compound 30 minutes before, and a fixed amount of pepstatin (20 mg/kg po) 10 minutes before, the hydrochloric acid was administered. […] One hour after receiving the HC1 solution, the animals were sacrificed with an intraperitoneal injection of 0.2 mL of T-6r-, a euthanasia solution (National Laboratories Corp.).
The stomachs were photographed with a Polaroid" Close Up camera (Polaroid Corporation) and scoring was determined from the photographs. For scoring purposes, only those erosions with a minimum length of 1 mm were considered. The severity of gastric ulceration was defined for each animal as the sum of the maximum continuous lengths (in mm) of the erosions satisfying the above criteria. […]
Data were analyzed using the t-test for unpaired data and ED50 values were calculated from the dose response data using probit analysis [Finney, Probit Analysis, 3rd ed., University Press, Cambridge, England (1971)]. […]

Turning to `CN(C)Cc1cccc(OCCCNc2n[s+]([O-])nc2N)c1` (centres unmarked) [Example 118, 3-Amino-4-[3-(3-dimethylaminomethylphenoxy)propylamino]-1,2,5-thiadiazole 1-oxide], the “Potency Ratio (cimetidine = 1.0)” value in the experiment with acid output amounted to 10. For the same compound, the ED50 with Gastric Acid Output (setting [3]) amounted to 0.066 µmol/kg.

Turning to `[O-][s+]1nc(NCCCOc2cccc(CN3CCCCC3)c2)c(NCc2cccnc2)n1` (centres unmarked) [Example 149, 3-[(3-Pyridyl)methylamino]-4-[3-(3-piperidinomethylphenoxy)-proavlamino]-1,2,5-thiadiazole1-oxide], the “Potency Ratio (cimetidine = 1.0)” value in the experiment on acid output was found to be 10. For the same compound, in the experiment on Gastric Acid Output (setting [3]), the ED50 was about 0.08 µmol/kg.

For `CC1(C)[C@@H](OC(=O)CCC(=O)O)CC[C@]2(C)[C@H]3C(=O)C=C4[C@@H]5C[C@@](C)(C(=O)O)CC[C@]5(C)CC[C@@]4(C)[C@]3(C)CC[C@@H]12` [carbenoxolone], the ulcer formation result in the experiment on ulcer formation was “significantly decreased ulcer formation”.

Turning to `NC1=NS(=O)(=O)N=C1NCCCOc1cccc(CN2CCCC2)c1` [146 a], in the experiment on acid output, the “Potency Ratio (cimetidine = 1.0)” value is about 20. Also, the ED50 in the experiment with Gastric Acid Output (Route of Administration s.c.) is recorded as 0.023 (0.0091-0.046) μmoles/kg.

Regarding `CNC(=C[N+](=O)[O-])NCCSCc1ccc(CN(C)C)o1` [Ranitidine, ranitidine], the “times as potent as cimetidine as an inhibitor of gastric secretion” value is about 6 times in the experiment on gastric secretion [1] and “about 4 times” in the experiment with gastric secretion [2]. The ED50 in the experiment on gastric erosions (Rattus norvegicus, po, compound alone, orally 30 minutes before 1.0 mL of 0.75N HCl, read-out: ED50 (mg/kg) for Inhibition of Ulcer Formation Alone) is 123 mg/kg. The “ED50 (mg/kg) for Inhibition of Ulcer Formation with Pepstatin” value in the experiment on gastric erosions (compound orally 30 minutes before and pepstatin 20 mg/kg po 10 minutes before HCl) is on record as 104 mg/kg. In the case of `CCNC1=NS(=O)(=O)N=C1NCCSCc1ccc(CN(C)C)o1` [Example 12, 3-{2-[(5-Dimethylaminomethyl-2-furyl)methylthio]ethyl-amino]-4-ethylamino-1,2,5-thiadiazole 1,1-dioxide], the “Potency Ratio (cimetidine = 1.0)” value in the experiment on acid output is 10. The ED50 in the experiment with Gastric Acid Output (setting [4]) amounted to 0.28 µmol/kg.

`CN(C)Cc1ccc(CSCCNC2=NS(=O)(=O)N=C2NCCSCc2ccc(CN(C)C)o2)o1` [11 B]: the “Potency Ratio (cimetidine = 1.0)” value in the experiment on acid output worked out at 11. The ED50 with Gastric Acid Output (Route of Administration i.p.) is reported as 0.69 (0.31-1.33) μmoles/kg.

`CNC1=NS(=O)(=O)N=C1NCCSCc1ccc(CN(C)C)s1` [Example 65, 3-{2-[(5-Dimethylaminomethyl-2-thienyl)methylthio]ethyl-amino}-4-methylamino-1,2,5-thiadiazole 1,I-dioxide]: the “Potency Ratio (cimetidine = 1.0)” value in the experiment with acid output is reported as 10. For the same compound, the ED50 with Gastric Acid Output (setting [3]) was 0.07 µmol/kg. Consider sucralfate, for which, in the experiment with pepsin, the “benefit in patients with gastric ulcer” value is “none”.

For `CNC1=NS(=O)(=O)N=C1NCCSCc1csc(NC(=N)N)n1` [Example 31, 3-{2-[(2-Guanidinothiazol-4-yl)methylthio)ethylamino}-4-methylamino-1,2,5-thiadiazole 1,1-dioxide], the “Potency Ratio (cimetidine = 1.0)” value in the experiment on acid output was 13. In addition, in the experiment with Gastric Acid Output (setting [4]), the ED50 worked out at 0.41 µmol/kg.

For `CN/C(=N/CCSCc1nc[nH]c1C)NC#N` [cimetidine], the ulcer formation result in the experiment on ulcer formation is on record as “significantly decreased ulcer formation”. Also, in the experiment on acid output (Canis lupus familiaris, po, read-out: oral ED50), the ED50 was about 3.3 µmol/kg. In the experiment with gastric acid secretion, the “basal and stimulated gastric acid secretion” value is “antagonize both basal and stimulated gastric acid secretion”. As for `NC(N)=Nc1nc(CSCCNC2=NS(=O)(=O)N=C2N)cs1` [Example 35, 3-Amino-4-{2-[(2-guanidinothiazol-4-yli)methylthio]ethyl-amino}-1,2,5-thiadiazole 1,1-dioxide], the “Potency Ratio (cimetidine = 1.0)” value in the experiment with acid output stood at 20. Further, in the experiment with Gastric Acid Output (setting [3]), the ED50 is 0.08 µmol/kg. For the compound `CNC1=NS(=O)(=O)N=C1NCCCOc1cccc(CN2CCCC2)c1` [144 a], in the experiment with Gastric Acid Output (Route of Administration s.c.), the ED50 is 0.095 (0.033-0.30) μmoles/kg. For `NC1=NS(=O)(=O)N=C1NCCCOc1cccc(CN2CCCCC2)c1` [Example 134, 3-Amino-4-[3-(3-piperidinomethylphenoxy)propyiamino]-1,2,5-thiadiazole 1,1-dioxide], the ED50 in the experiment with Gastric Acid Output (setting [3]) was determined as 0.024 µmol/kg.

Take `CNC1=NS(=O)(=O)N=C1NCCSCc1csc(CN(C)C)n1` [Example 33, 3-{2-[(2-Dimethylaminomethyl-4-thiazolyl)methylthio]ethyl-amino}-4-methylamino-1,2,5-thiadiazole 1,1-dioxide]: the ED50 in the experiment on Gastric Acid Output (setting [3]) was 0.57 µmol/kg.

Consider `CNc1n[s+]([O-])nc1NCCSCc1ccc(CN(C)C)o1` (centres unmarked) [Example 18, 3-{2-[(5-Dimethylaminomethyl-2-furyl)methylthio]ethylamino}-4-methylamino-1,2,5-thiadiazole 1-oxide], for which the “Potency Ratio (cimetidine = 1.0)” value in the experiment on acid output is 18. In addition, the ED50 with Gastric Acid Output (setting [3]) was determined as 0.38 µmol/kg.

Turning to `CC1CCN(Cc2cccc(OCCCNc3n[s+]([O-])nc3N)c2)CC1` (centres unmarked) [145 b], the ED50 in the experiment with Gastric Acid Output (Route of Administration s.c.) was about 0.06 µmol/kg. On the same count and under the same terms, next, `CNC1=NS(=O)(=O)N=C1NCCCOc1cccc(CN2CCOCC2)c1` [144 d]: 0.91 (0.36-3.2) μmoles/kg. For the compound `CN(C)Cc1ccc(CSCCNC2=NS(=O)(=O)N=C2N2CCCC2)o1` [Example 101, 3-{2-[(5-Dimethylaminomethyl-2-furyl)methylthio]ethylamino}-4-pyrrolidino-1,2,5-thiadiazole 1,1-dioxide], the ED50 with Gastric Acid Output (setting [3]) worked out at 68 µmol/kg. On to `C#CCNC1=NS(=O)(=O)N=C1NCCSCc1ccc(CN(C)C)o1` [Example 13, 3-{2-[(5-Dimethylaminomethyl-2-furyl)methvlthio]ethyl-amino}-4-(2-proynyl)amino-1,2,5-thiadiazole 1,1-dioxide], for which the ED50 with Gastric Acid Output (setting [3]) is 0.46 µmol/kg. As for `CNCc1ccc(CSCCNC2=NS(=O)(=O)N=C2NC)o1` [20 A], the ED50 in the experiment on Gastric Acid Output (Route of Administration s.c.) is reported as 1.15 (0.32-3.7) μmoles/kg.

(Values after patent EP0099121A2, “Pharmaceutical compositions” (Bristol-Myers Company, priority 1982, dated 1984).)
